Laboratory results taken from article PMC8533253, “Bis-thiobarbiturates as Promising Xanthine Oxidase Inhibitors: Synthesis and Biological Evaluation” (Biomedicines, 2021).

Legend:
Xanthine oxidase (XO) = target: T1, Xanthine oxidase (XO) (Bos taurus, UniProt P80457); experiment: XO inhibitory assay (spectrophotometric quantification of uric acid formation at 295 nm); format: biochemical; conditions: for inhibition at 5 µM / inhibition at 30 µM: read-out: XO inhibition (%)
T1 construct: purchased Sigma-Aldrich X4875
T1 sequence (P80457 whole entry): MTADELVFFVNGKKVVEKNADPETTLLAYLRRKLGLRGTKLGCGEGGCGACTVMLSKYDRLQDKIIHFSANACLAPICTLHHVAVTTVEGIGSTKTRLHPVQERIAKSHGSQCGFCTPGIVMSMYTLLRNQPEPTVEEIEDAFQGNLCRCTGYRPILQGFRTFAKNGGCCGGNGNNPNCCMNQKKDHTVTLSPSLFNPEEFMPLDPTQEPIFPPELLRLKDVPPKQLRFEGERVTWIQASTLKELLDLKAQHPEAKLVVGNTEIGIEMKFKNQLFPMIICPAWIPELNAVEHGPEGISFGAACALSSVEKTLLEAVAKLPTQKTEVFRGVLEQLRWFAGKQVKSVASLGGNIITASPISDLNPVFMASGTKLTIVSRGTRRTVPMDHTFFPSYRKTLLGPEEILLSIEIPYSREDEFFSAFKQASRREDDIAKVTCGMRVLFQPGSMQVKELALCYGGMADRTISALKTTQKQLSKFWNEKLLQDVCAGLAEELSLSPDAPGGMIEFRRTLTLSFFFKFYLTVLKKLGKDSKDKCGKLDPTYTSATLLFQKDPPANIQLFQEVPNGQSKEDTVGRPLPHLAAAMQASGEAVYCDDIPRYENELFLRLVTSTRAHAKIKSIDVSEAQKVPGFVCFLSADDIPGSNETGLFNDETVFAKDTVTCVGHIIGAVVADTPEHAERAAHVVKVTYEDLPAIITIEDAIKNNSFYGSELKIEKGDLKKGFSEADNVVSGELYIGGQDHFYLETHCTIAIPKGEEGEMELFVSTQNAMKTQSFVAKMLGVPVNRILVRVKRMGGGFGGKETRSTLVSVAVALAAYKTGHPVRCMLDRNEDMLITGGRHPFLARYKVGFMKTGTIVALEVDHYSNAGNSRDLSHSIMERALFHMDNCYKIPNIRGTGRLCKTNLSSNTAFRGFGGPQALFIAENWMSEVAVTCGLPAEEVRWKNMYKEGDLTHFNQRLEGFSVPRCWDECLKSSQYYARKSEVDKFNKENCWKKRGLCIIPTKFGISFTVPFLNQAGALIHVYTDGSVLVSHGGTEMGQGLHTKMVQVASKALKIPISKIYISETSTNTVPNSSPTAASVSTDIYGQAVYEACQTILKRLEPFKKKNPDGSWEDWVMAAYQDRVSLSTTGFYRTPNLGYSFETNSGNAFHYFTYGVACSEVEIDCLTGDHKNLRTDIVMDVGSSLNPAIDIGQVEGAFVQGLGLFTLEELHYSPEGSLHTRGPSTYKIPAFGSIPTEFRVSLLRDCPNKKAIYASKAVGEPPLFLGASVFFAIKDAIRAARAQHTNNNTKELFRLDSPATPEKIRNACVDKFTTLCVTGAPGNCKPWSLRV
Description: XO inhibitory and antioxidant assays were performed in triplicate while antiproliferative assay was conducted in quadruplicate. For each assay, at least two independent experiments were performed. An initial screening at the concentration of 30 μM for all compounds under study was performed in each in vitro study. […] Half-maximal inhibitory concentration (IC50) studies were performed for drugs used as a reference and for the most promising bis-thiobarbiturate in XO inhibitory, antioxidant, and cytotoxicity assays.
The XO inhibitory activity was evaluated by spectrophotometric quantification of uric acid formation. The 50 mM dihydrogen phosphate buffer (pH 7.4) was used to dilute all solutions. For each assay performed, 50 μL of the test solution and 50 μL of the 0.1 U/mL XO (Sigma-Aldrich X4875, St. Louis, MO, USA) solution were added in each well of an Elisa microplate (96 wells) followed by 5 min of incubation at 37 °C. […] The reaction started with the addition of 150 μL of a xanthine solution (420 μM). The absorbance was recorded at a wavelength of 295 nm every minute for 10 min. To obtain only the absorbance associated with uric acid, a solution consisting of 50 μL of the test solution, 150 μL of the xanthine solution, and 50 μL of buffer were used as blank. […] For each compound, the percentage of enzyme inhibition was calculated according to the following formula:% of XO inhibition = [1 − (ABSsample − ABSblank of sample)/ABSnegative control] × 100
(§1) All in vitro results are expressed as mean values ± standard deviation (SD) of at least two independent determinations. The difference between groups was analyzed for each assay by Student’s t-test. The IC50 values were calculated by sigmoidal fitting analysis considering a 95% confidence interval.

[1] = Cytotoxicity/antiproliferative assay (MTT) on Caco-2; format: cell-based; conditions: human, read-out: Cytotoxicity (% cell viability at 30 µM) Caco-2
Description: (§2) XO inhibitory and antioxidant assays were performed in triplicate while antiproliferative assay was conducted in quadruplicate. For each assay, at least two independent experiments were performed. An initial screening at the concentration of 30 μM for all compounds under study was performed in each in vitro study. A second screening at 5 μM was performed for compounds that originated an inhibitory potential higher than 80% for the XO activity at 30 μM. Half-maximal inhibitory concentration (IC50) studies were performed for drugs used as a reference and for the most promising bis-thiobarbiturate in XO inhibitory, antioxidant, and cytotoxicity assays.
(§3) The cytotoxic potential of the compounds being studied was evaluated by quantifying the extent of the reduction of 3-(4,5-dimethylthiazol-2-yl)-2,5-diphenyltetrazolium bromide (MTT, VWR, Radnor, PA, USA) on tumor cell lines of the colon (Caco-2) and breast (MCF-7) adenocarcinoma and non-tumor human dermal fibroblasts (NHDF). All cell lines were obtained from the American Type Culture Collection (ATCC, Manassas, VA, USA) and were maintained in 75 cm^2 culture flasks in a humidified air incubator with 5% CO2 at 37 °C. NHDF cells have grown in RPMI 1640 medium (Sigma-Aldrich, St. Louis, MO, USA) supplemented with 10% fetal bovine serum (FBS), 10 mM 4-(2-hydroxyethyl)-1-piperazineethanesulfonic acid (HEPES), 2 mM L-glutamine, 1 mM sodium pyruvate, and 1% antibiotic/antimycotic (Ab: 10,000 units/mL penicillin G, […] streptomycin and 25 μg/mL amphotericin B). MCF-7 cells were cultured in high-glucose Dulbecco’s modified Eagle medium (DMEM, Sigma-Aldrich, St. Louis, MO, USA) supplemented with 10% FBS, and 1% Ab. The Caco-2 cell line was cultured in a high glucose DMEM supplemented with 20% FBS and 1% of the antibiotic mixture (Sp: 10,000 units/mL penicillin G and […] of streptomycin). For the assay, cells were seeded in 96-well plates (2 × 10^4 cells/mL) in the culture medium. After 48 h of adherence, cells were treated with the test solutions and incubated for 72 h. […] Untreated cells were used as a negative control and 5-FU as the positive control. Following incubation, the medium was removed and replaced with a fresh incomplete culture medium (without FBS and Ab or Sp) and MTT solution [5 mg/mL in phosphate buffer saline (PBS)]. After further incubation for 4 h at 37 °C, the medium with MTT was removed, formazan crystals were dissolved in DMSO, and the absorbance was read at 570 nm. Results were expressed as the relative cell proliferation in comparison with the negative control cells.
as §1

[2] = Cytotoxicity/antiproliferative assay (MTT) on MCF-7; format: cell-based; conditions: human, MCF-7 cells (breast adenocarcinoma), read-out: Cytotoxicity (% cell viability at 30 µM) MCF-7
Description: as §2, §3, §1

[3] = Antioxidant assay, DPPH method; conditions: 60 min
Description: as §2
Antioxidant potential was spectrophotometrically evaluated by the 2,2-diphenyl-1-picrylhydrazyl (DPPH, Sigma-Aldrich, St. Louis, MO, USA) method. All solutions and dilutions were prepared in 99.5% ethanol before each experiment. For each assay, 100 μL of the test solution and 100 μL of DPPH solution (0.2 mM) were added to each well of a 96 wells Elisa microplate. […] After 60 min of incubation in dark at rt, the capacity of each compound to reduce DPPH was followed by measuring the absorbance at 517 nm. Ethanol was used as a negative control and Trolox as the positive control. To discount the absorbance of each compound at 517 nm, a blank was performed with 100 μL of each test compound and 100 μL of ethanol. The antioxidant capacity of each sample was calculated according to the following formula:% DPPH scavenging = [1 − (ABSsample − ABSblank of sample)/ABSnegative control] × 100
as §1

[4] = tested on: NHDF cells (non-tumor human dermal fibroblasts); experiment: Cytotoxicity assay (MTT) on NHDF; format: cell-based
Description: as §2, §3, §1

[5] = Cytotoxicity assay (MTT) on NHDF; format: cell-based, human; conditions: human, NHDF cells (non-tumor human dermal fibroblasts), 72 h, MTT; for viability at 72 h, 30 µM: read-out: Cytotoxicity (% cell viability at 30 µM) NHDF
Description: as §2, §3, §1

SMILES | IC50 (Xanthine oxidase (XO)) [µM] | inhibition at 5 µM (Xanthine oxidase (XO)) [%] | inhibition at 30 µM (Xanthine oxidase (XO)) [%] | viability at 72 h, 30 µM [1] [%] | viability at 72 h, 30 µM [2] [%] | DPPH (% scavenging at 30 µM) [3] [%] | IC50 ([3]; read-out: DPPH Scavenging IC50) [µM] | selectivity index for DPPH scavenging activity ([4]; NHDF cytotoxicity versus DPPH scavenging) | selectivity index for XO inhibition ([4]; NHDF cytotoxicity versus XO inhibition) | viability at 72 h, 30 µM [5] [%] | IC50 at 72 h [5] [µM] | melting point [°C]
CCn1c(O)c(C(c2ccc(Br)cc2)c2c(O)n(CC)c(=S)n(CC)c2=O)c(=O)n(CC)c1=S [Compound 11, 5,5′-((4-Bromophenyl)methylene)bis(1,3-diethyl-6-hydroxy-2-thioxo-2,3-dihydropyrimidin-4(1H)-one)] | 1.79 ± 0.07 | 80.9 | 95.7 | 72.3 ± 9.76 | 92.2 ± 3.68 | 57.25 ± 0.98 | 24.7 ± 0.88 | 3.77 | 52.04 | 94.3 ± 7.84 | 93.2 ± 5.54 | –
CCn1c(O)c(C(c2ccc(NC(C)=O)cc2)c2c(O)n(CC)c(=S)n(CC)c2=O)c(=O)n(CC)c1=S [Compound 9, N-(4-(Bis(1,3-diethyl-6-hydroxy-4-oxo-2-thioxo-1,2,3,4-tetrahydropyrimidin-5-yl)methyl)phenyl)acetamide] | – | – | 45.6 | 67.5 ± 9.4 | 90.2 ± 5.7 | 39.63 ± 2.26 | – | – | – | 81.3 ± 8.87 | – | 178 to 179
CCn1c(O)c(C(c2cc(O)ccc2[N+](=O)[O-])c2c(O)n(CC)c(=S)n(CC)c2=O)c(=O)n(CC)c1=S [Compound 16, 5,5′-((5-Hydroxy-2-nitrophenyl)methylene)bis(1,3-diethyl-6-hydroxy-2-thioxo-2,3-dihydropyrimidin-4(1H)-one)] | – | – | 61.4 | 95.4 ± 3.3 | 91.1 ± 2 | 31.35 ± 0.91 | – | – | – | 60.7 ± 1.72 | – | 167 to 169
CCn1c(O)c(C(c2ccc(C)cc2)c2c(O)n(CC)c(=S)n(CC)c2=O)c(=O)n(CC)c1=S [Compound 4, 5,5′-(p-Tolymethylene)bis(1,3-diethyl-6-hydroxy-2-thioxo-2,3-dihydropyrimidin-4(1H)-one)] | – | – | 36.5 | 98.6 ± 5.7 | 90.6 ± 3.92 | 42.64 ± 0.81 | – | – | – | 95.6 ± 7.26 | – | 163 to 164
CCn1c(O)c(C(c2ccccc2[N+](=O)[O-])c2c(O)n(CC)c(=S)n(CC)c2=O)c(=O)n(CC)c1=S [Compound 13, 5,5′-((2-Nitrophenyl)methylene)bis(1,3-diethyl-6-hydroxy-2-thioxo-2,3-dihydropyrimidin-4(1H)-one)] | – | 37.4 | 89.7 | 95.4 ± 4.17 | 98.2 ± 3.25 | 29.90 ± 0.50 | – | – | – | 75.8 ± 2.41 | – | 172 to 173
CCn1c(O)c(C(c2cc3c(cc2[N+](=O)[O-])OCO3)c2c(O)n(CC)c(=S)n(CC)c2=O)c(=O)n(CC)c1=S [Compound 17, 5,5′-((6-Nitrobenzo[d][1,3]dioxol-5-yl)methylene)bis(1,3-diethyl-6-hydroxy-2-thioxo-2,3-dihydropyrimidin-4(1H)-one)] | – | 55.2 ± 1.63 | 90.8 ± 2.87 | 88.7 ± 7.85 | 86.6 ± 5.87 | 40.90 ± 0.65 | – | – | – | 68.9 ± 9.33 | – | 148 to 149
